Experimental data from ChEMBL document CHEMBL1781904, “Absolute configuration and selective trypanocidal activity of gaudichaudianic acid enantiomers” (J Nat Prod, 2011).

The compounds below were run on Trypanosoma cruzi (assay: Trypanocidal activity against Trypanosoma cruzi Y epimastigotes after 72 hrs by MTT assay). Settings: not given.
Format: functional, organism-based

In order of falling IC50:
1. CC(C)=CCCC1(C)C=Cc2cc(C(=O)O)cc(CC=C(C)C)c2O1 (racemic; form 2) [GAUDICHAUDIANIC ACID]  197 µM
2. CC(C)=CCCC1(C)C=Cc2cc(C(=O)O)cc(CC=C(C)C)c2O1 (racemic; form 1) [GAUDICHAUDIANIC ACID]  111 µM
3. CC(C)=CCCC1(C)C=Cc2cc(C(=O)O)cc(CC=C(C)C)c2O1 (stereo in doubt; 1) [GAUDICHAUDIANIC ACID]  55.8 µM

Same assay, conditions: Trypanosoma cruzi, Y, 72 h

In order of rising IC50:
1. O=C(Cn1ccnc1[N+](=O)[O-])NCc1ccccc1 [BENZNIDAZOLE]  37.3 µM
2. CC(C)=CCC[C@@]1(C)C=Cc2cc(C(=O)O)cc(CC=C(C)C)c2O1  176 µM
3. CC(C)=CCC[C@]1(C)C=Cc2cc(C(=O)O)cc(CC=C(C)C)c2O1  224 µM
